Source: US8969360B2, “Compounds useful as inhibitors of ATR kinase” (Vertex Pharmaceuticals Incorporated, priority 2013, dated 2015)

What was measured:
[1] = tested on: HCT116 colorectal cancer cells; experiment: Cisplatin Sensitization Assay (96 h cell viability MTS); assay type: cell-based; conditions: concentration of compound required to reduce the IC50 of Cisplatin alone by at least 3-fold; HCT116, 96 h MTS
Procedure: Compounds can be screened for their ability to sensitize HCT116 colorectal cancer cells to Cisplatin using a 96 h cell viability (MTS) assay. […] Compounds and Cisplatin are then both added simultaneously to the cell media in 2-fold serial dilutions from a top final concentration of 10 μM as a full matrix of concentrations in a final cell volume of 200 μl, and the cells are then incubated at 37° C. in 5% CO2. After 96 h, 40 μl of MTS reagent (Promega G358a) is added to each well and the cells are incubated for 1 h at 37° C. in 5% CO2. Finally, absorbance is measured at 490 nm using a SpectraMax Plus 384 reader (Molecular Devices) and the concentration of compound required to reduce the IC50 of Cisplatin alone by at least 3-fold (to 1 decimal place) can be reported.
Compounds with a Cisplatin sensitization value of <0.02 μM are marked with “+++.” Compounds with a Cisplatin sensitization value>0.02 μM but <0.2 μM are marked with “++.” Compounds with a Cisplatin sensitization value >0.2 μM but <5 μM are marked with “+.”

[2] = target: T1, ATR kinase (Homo sapiens, UniProt Q13535); experiment: ATR Inhibition Assay (radioactive-phosphate incorporation); assay type: biochemical; conditions: Ki(app); 5 nM full-length ATR, 10 μM ATP, 800 μM target peptide, 25° C.
T1 construct: Assays were carried out at 25° C. in the presence of 5 nM full-length ATR
T1 sequence (Q13535 whole entry): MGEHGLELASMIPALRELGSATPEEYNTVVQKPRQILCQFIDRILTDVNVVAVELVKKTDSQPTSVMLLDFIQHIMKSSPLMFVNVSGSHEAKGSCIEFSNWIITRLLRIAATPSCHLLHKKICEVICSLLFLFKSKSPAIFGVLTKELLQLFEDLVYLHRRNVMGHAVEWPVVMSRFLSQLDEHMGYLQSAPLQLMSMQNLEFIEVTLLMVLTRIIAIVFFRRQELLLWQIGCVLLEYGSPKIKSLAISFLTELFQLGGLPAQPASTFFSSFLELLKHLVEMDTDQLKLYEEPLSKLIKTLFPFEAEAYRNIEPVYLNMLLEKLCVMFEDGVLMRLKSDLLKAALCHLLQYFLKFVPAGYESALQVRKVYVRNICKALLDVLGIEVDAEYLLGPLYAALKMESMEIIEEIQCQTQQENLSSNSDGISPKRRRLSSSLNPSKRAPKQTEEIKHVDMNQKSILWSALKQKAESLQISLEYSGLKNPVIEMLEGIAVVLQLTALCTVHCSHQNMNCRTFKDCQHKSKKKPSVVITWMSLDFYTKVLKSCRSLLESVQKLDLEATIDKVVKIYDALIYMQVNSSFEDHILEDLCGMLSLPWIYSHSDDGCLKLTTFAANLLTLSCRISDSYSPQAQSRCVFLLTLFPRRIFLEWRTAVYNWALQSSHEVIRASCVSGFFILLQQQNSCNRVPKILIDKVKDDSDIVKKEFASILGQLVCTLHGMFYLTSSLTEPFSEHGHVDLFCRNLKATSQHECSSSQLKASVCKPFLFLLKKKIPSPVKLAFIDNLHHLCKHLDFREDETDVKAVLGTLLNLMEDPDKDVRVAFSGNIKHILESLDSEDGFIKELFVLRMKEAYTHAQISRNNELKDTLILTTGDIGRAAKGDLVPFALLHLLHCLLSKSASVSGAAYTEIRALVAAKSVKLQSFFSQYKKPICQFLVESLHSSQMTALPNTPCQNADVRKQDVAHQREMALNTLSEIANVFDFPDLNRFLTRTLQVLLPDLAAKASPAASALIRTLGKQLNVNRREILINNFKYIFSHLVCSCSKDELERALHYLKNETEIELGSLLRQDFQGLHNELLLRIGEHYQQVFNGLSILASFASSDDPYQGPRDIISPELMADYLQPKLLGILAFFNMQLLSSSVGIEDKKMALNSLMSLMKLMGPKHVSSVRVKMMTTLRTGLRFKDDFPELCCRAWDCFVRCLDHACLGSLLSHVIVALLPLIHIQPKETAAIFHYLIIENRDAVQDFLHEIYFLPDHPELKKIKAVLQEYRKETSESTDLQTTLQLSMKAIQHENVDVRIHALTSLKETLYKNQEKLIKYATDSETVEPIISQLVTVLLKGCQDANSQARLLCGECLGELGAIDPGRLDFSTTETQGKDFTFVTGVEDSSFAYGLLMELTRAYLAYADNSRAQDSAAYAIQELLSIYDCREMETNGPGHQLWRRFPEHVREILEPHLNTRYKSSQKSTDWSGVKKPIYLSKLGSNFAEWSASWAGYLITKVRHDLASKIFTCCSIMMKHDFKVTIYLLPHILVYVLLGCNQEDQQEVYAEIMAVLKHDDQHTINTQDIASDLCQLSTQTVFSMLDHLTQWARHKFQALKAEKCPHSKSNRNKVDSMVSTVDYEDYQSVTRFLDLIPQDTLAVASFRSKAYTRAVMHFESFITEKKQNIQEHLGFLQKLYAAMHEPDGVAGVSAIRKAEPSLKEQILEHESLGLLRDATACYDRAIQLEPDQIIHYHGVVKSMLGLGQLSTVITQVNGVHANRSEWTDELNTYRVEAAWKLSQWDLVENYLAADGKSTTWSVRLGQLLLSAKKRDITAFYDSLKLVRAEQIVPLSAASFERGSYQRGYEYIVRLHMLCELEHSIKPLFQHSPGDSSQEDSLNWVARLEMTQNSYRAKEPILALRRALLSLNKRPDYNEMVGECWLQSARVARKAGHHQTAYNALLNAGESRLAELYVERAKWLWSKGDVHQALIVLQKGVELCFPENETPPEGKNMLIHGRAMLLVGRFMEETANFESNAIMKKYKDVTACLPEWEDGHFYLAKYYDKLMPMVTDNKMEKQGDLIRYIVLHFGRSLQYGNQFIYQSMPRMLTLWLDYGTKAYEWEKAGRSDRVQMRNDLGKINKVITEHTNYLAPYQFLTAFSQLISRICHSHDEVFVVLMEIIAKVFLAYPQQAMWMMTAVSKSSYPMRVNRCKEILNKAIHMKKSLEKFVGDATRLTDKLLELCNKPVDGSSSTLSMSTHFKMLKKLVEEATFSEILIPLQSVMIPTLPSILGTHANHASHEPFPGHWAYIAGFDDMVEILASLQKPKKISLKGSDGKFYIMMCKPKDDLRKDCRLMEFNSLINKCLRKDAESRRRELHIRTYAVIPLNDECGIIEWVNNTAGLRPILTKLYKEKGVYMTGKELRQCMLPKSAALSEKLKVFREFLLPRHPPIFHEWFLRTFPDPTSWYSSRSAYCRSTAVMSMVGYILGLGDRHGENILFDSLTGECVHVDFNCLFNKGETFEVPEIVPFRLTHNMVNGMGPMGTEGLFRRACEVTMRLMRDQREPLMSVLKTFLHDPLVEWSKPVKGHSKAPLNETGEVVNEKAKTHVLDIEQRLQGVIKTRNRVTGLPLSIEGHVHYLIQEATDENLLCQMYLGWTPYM
Procedure: Compounds were screened for their ability to inhibit ATR kinase using a radioactive-phosphate incorporation assay. Assays were carried out in a mixture of 50 mM Tris/HCl (pH 7.5), 10 mM MgCl2 and 1 mM DTT. Final substrate concentrations were 10 μM [γ-33P]ATP (3 mCi 33P ATP/mmol ATP, Perkin Elmer) and 800 μM target peptide (ASELPASQPQPFSAKKK (SEQ. ID NO: 1)).
Assays were carried out at 25° C. in the presence of 5 nM full-length ATR. An assay stock buffer solution was prepared containing all of the reagents listed above, with the exception of ATP and the test compound of interest. 13.5 μL of the stock solution was placed in a 96 well plate followed by addition of 2 μL of DMSO stock containing serial dilutions of the test compound (typically starting from a final concentration of 15 μM with 3-fold serial dilutions) in duplicate (final DMSO concentration 7%). The plate was pre-incubated for 10 minutes at 25° C. and the reaction initiated by addition of 15 μL [γ-33P]ATP (final concentration 10 μM).
The reaction was stopped after […] by the addition of 30 μL, 0.1M phosphoric acid containing 2 mM ATP. A multiscreen phosphocellulose filter 96-well plate (Millipore, Cat no. MAPHN0B50) was pretreated with 100 μL 0.2M phosphoric acid prior to the addition of 45 μL of the stopped assay mixture. The plate was washed with 5×200 μL 0.2M phosphoric acid. After drying, 100 μL Optiphase ‘SuperMix’ liquid scintillation cocktail (Perkin Elmer) was added to the well prior to scintillation counting (1450 Microbeta Liquid Scintillation Counter, Wallac).
After removing mean background values for all of the data points, Ki(app) data were calculated from non-linear regression analysis of the initial rate data using the Prism software package (GraphPad Prism version 3.0cx for Macintosh, GraphPad Software, San Diego Calif., USA).
Compounds with a Ki value of <0.01 μM are marked with “+++.” Compounds with a Ki value >0.01 μM but <1 μM are marked with “++.” Compounds with a Ki value >1 μM but <5 μM are marked with “+.”

With `Nc1nn2ccc(C(F)(F)F)nc2c1C(=O)Nc1cnccc1OCCO` [I-O-13, 2-amino-N-(4-(2-hydroxyethoxy)pyridin-3-yl)-5-(trifluoromethyl)pyrazolo[1,5-a]pyrimidine-3-carboxamide] the “Synergy with Cisplatin” value [1] was “+++ (Compounds with a Cisplatin sensitization value of <0.02 μM are marked with “+++.”)” and the Ki [2] was under 10 nM.
With `Nc1nn2ccc(C(F)(F)F)nc2c1C(=O)Nc1cnccc1OCCCO` [I-O-14, 2-amino-N-(4-(3-hydroxypropoxy)pyridin-3-yl)-5-(trifluoromethyl)pyrazolo[1,5-a]pyrimidine-3-carboxamide] the “Synergy with Cisplatin” value [1] was “+++ (Compounds with a Cisplatin sensitization value of <0.02 μM are marked with “+++.”)” and the Ki [2] was under 10 nM.
In the case of `Nc1nn2ccc(C(F)(F)F)nc2c1C(=O)Nc1cnccc1Oc1cccnc1` [I-O-15, 2-amino-N-(4-(pyridin-3-yloxy)pyridin-3-yl)-5-(trifluoromethyl)pyrazolo[1,5-a]pyrimidine-3-carboxamide], the “Synergy with Cisplatin” value [1] is reported as “+++ (Compounds with a Cisplatin sensitization value of <0.02 μM are marked with “+++.”)” and the Ki [2] is reported as under 10 nM.
With `Nc1nn2ccc(C(F)(F)F)nc2c1C(=O)Nc1cnccc1Oc1ccncc1` [I-O-16, 2-amino-N-(4-(pyridin-4-yloxy)pyridin-3-yl)-5-(trifluoromethyl)pyrazolo[1,5-a]pyrimidine-3-carboxamide] the “Synergy with Cisplatin” value [1] was “+ (Compounds with a Cisplatin sensitization value >0.2 μM but <5 μM are marked with “+.”)” and the Ki [2] was 10 to 1000 nM.
`CN(C)CCOc1ccncc1NC(=O)c1c(N)nn2ccc(C(F)(F)F)nc12` [I-O-17, 2-amino-N-(4-(2-(dimethylamino)ethoxy)pyridin-3-yl)-5-(trifluoromethyl)pyrazolo[1,5-a]pyrimidine-3-carboxamide] was tested, and the “Synergy with Cisplatin” value [1] was “++ (Compounds with a Cisplatin sensitization value>0.02 μM but <0.2 μM are marked with “++.”)” and the Ki [2] was 10 to 1000 nM.
`Nc1nn2ccc(C(F)(F)F)nc2c1C(=O)Nc1cnccc1OC1CNC1` [I-O-18, 2-amino-N-(4-(azetidin-3-yloxy)pyridin-3-yl)-5-(trifluoromethyl)pyrazolo[1,5-a]pyrimidine-3-carboxamide] was tested, and the “Synergy with Cisplatin” value [1] was “++ (Compounds with a Cisplatin sensitization value>0.02 μM but <0.2 μM are marked with “++.”)” and the Ki [2] was 10 to 1000 nM.
For `CN1CC[C@@H](Oc2ccncc2NC(=O)c2c(N)nn3ccc(C(F)(F)F)nc23)C1` [I-O-19, (R)-2-amino-N-(4-((1-methylpyrrolidin-3-yl)oxy)pyridin-3-yl)-5-(trifluoromethyl)pyrazolo[1,5-a]pyrimidine-3-carboxamide], the “Synergy with Cisplatin” value [1] was “++ (Compounds with a Cisplatin sensitization value>0.02 μM but <0.2 μM are marked with “++.”)” and the Ki [2] was 10 to 1000 nM.
With `Nc1nn2ccc(C(F)(F)F)nc2c1C(=O)Nc1cnccc1OCCN1CCOCC1` [I-O-20, 2-amino-N-(4-(2-morpholinoethoxy)pyridin-3-yl)-5-(trifluoromethyl)pyrazolo[1,5-a]pyrimidine-3-carboxamide] the “Synergy with Cisplatin” value [1] was “++ (Compounds with a Cisplatin sensitization value>0.02 μM but <0.2 μM are marked with “++.”)” and the Ki [2] was 10 to 1000 nM.
With `Nc1nn2ccc(C(F)(F)F)nc2c1C(=O)Nc1cnccc1O[C@H]1CCNC1` [I-O-21, (S)-2-amino-N-(4-(pyrrolidin-3-yloxy)pyridin-3-yl)-5-(trifluoromethyl)pyrazolo[1,5-a]pyrimidine-3-carboxamide] the “Synergy with Cisplatin” value [1] was “++ (Compounds with a Cisplatin sensitization value>0.02 μM but <0.2 μM are marked with “++.”)” and the Ki [2] was 10 to 1000 nM.
In the case of `Nc1nn2ccc(C(F)(F)F)nc2c1C(=O)Nc1cnccc1OC1CC2(CCN2)C1` (centres unmarked) [I-O-22, N-(4-((4s,6r)-1-azaspiro[3.3]heptan-6-yloxy)pyridin-3-yl)-2-amino-5-(trifluoromethyl)pyrazolo[1,5-a]pyrimidine-3-carboxamide], the “Synergy with Cisplatin” value [1] is reported as “++ (Compounds with a Cisplatin sensitization value>0.02 μM but <0.2 μM are marked with “++.”)” and the Ki [2] is reported as 10 to 1000 nM.
In the case of `Nc1nn2ccc(C(F)(F)F)nc2c1C(=O)Nc1cnccc1OC1CCCNC1` (centres unmarked) [I-O-23, 2-amino-N-(4-(piperidin-3-yloxy)pyridin-3-yl)-5-(trifluoromethyl)pyrazolo[1,5-a]pyrimidine-3-carboxamide], the “Synergy with Cisplatin” value [1] is reported as “++ (Compounds with a Cisplatin sensitization value>0.02 μM but <0.2 μM are marked with “++.”)” and the Ki [2] is reported as 10 to 1000 nM.
In the case of `Nc1nn2ccc(C(F)(F)F)nc2c1C(=O)Nc1cnccc1OC1CC2(CCN2)C1` (centres unmarked) [I-O-24, N-(4-((4r,6s)-1-azaspiro[3.3]heptan-6-yloxy)pyridin-3-yl)-2-amino-5-(trifluoromethyl)pyrazolo[1,5-a]pyrimidine-3-carboxamide], the “Synergy with Cisplatin” value [1] is reported as “+++ (Compounds with a Cisplatin sensitization value of <0.02 μM are marked with “+++.”)” and the Ki [2] is reported as 10 to 1000 nM.
With `Nc1nn2ccc(C(F)(F)F)nc2c1C(=O)Nc1cnccc1O[C@@H]1CCNC1` [I-O-25, (R)-2-amino-N-(4-(pyrrolidin-3-yloxy)pyridin-3-yl)-5-(trifluoromethyl)pyrazolo[1,5-a]pyrimidine-3-carboxamide] the “Synergy with Cisplatin” value [1] was “++ (Compounds with a Cisplatin sensitization value>0.02 μM but <0.2 μM are marked with “++.”)” and the Ki [2] was 10 to 1000 nM.
In the case of `CN1CCCC(Oc2ccncc2NC(=O)c2c(N)nn3ccc(C(F)(F)F)nc23)C1` (centres unmarked) [I-O-26, 2-amino-N-(4-((1-methylpiperidin-3-yl)oxy)pyridin-3-yl)-5-(trifluoromethyl)pyrazolo[1,5-a]pyrimidine-3-carboxamide], the “Synergy with Cisplatin” value [1] is reported as “+++ (Compounds with a Cisplatin sensitization value of <0.02 μM are marked with “+++.”)” and the Ki [2] is reported as 10 to 1000 nM.
With `CN(C)CCCOc1ccncc1NC(=O)c1c(N)nn2ccc(C(F)(F)F)nc12` [I-O-27, 2-amino-N-(4-(3-(dimethylamino)propoxy)pyridin-3-yl)-5-(trifluoromethyl)pyrazolo[1,5-a]pyrimidine-3-carboxamide] the “Synergy with Cisplatin” value [1] was “++ (Compounds with a Cisplatin sensitization value>0.02 μM but <0.2 μM are marked with “++.”)” and the Ki [2] was 10 to 1000 nM.
`CN1CCC[C@@H]1COc1ccncc1NC(=O)c1c(N)nn2ccc(C(F)(F)F)nc12` [I-O-28, (R)-2-amino-N-(4-((1-methylpyrrolidin-2-yl)methoxy)pyridin-3-yl)-5-(trifluoromethyl)pyrazolo[1,5-a]pyrimidine-3-carboxamide] was tested, and the “Synergy with Cisplatin” value [1] was “++ (Compounds with a Cisplatin sensitization value>0.02 μM but <0.2 μM are marked with “++.”)” and the Ki [2] was 10 to 1000 nM.
`CN(C)[C@H]1CC[C@@H](Oc2ccncc2NC(=O)c2c(N)nn3ccc(C(F)(F)F)nc23)CC1` [I-O-30, 2-amino-N-(4-(((1s,4s)-4-(dimethylamino)cyclohexyl)oxy)pyridin-3-yl)-5-(trifluoromethyl)pyrazolo[1,5-a]pyrimidine-3-carboxamide] was tested, and the “Synergy with Cisplatin” value [1] was “+++ (Compounds with a Cisplatin sensitization value of <0.02 μM are marked with “+++.”)” and the Ki [2] was 10 to 1000 nM.
With `CN1CCC(Oc2ccncc2NC(=O)c2c(N)nn3ccc(C(F)(F)F)nc23)CC1` [I-O-31, 2-amino-N-(4-((1-methylpiperidin-4-yl)oxy)pyridin-3-yl)-5-(trifluoromethyl)pyrazolo[1,5-a]pyrimidine-3-carboxamide] the “Synergy with Cisplatin” value [1] was “++ (Compounds with a Cisplatin sensitization value>0.02 μM but <0.2 μM are marked with “++.”)” and the Ki [2] was 10 to 1000 nM.
In the case of `Nc1nn2ccc(C(F)(F)F)nc2c1C(=O)Nc1cnccc1OC1CC2(CNC2)C1` [I-O-32, N-(4-(2-azaspiro[3.3]heptan-6-yloxy)pyridin-3-yl)-2-amino-5-(trifluoromethyl)pyrazolo[1,5-a]pyrimidine-3-carboxamide], the “Synergy with Cisplatin” value [1] is reported as “++ (Compounds with a Cisplatin sensitization value>0.02 μM but <0.2 μM are marked with “++.”)” and the Ki [2] is reported as 10 to 1000 nM.
